Experimental data reported in patent US8618051B2, “Vesiculins” (Auckland Uniservices Limited, priority 2005, dated 2013).

Tested on: rat soleus muscle strips
Assay: rat soleus muscle assay: D-[14C(U)]-glucose incorporation into muscle glycogen
Settings: isolated soleus muscle strips of fasted male Wistar rats; peptide 0.71 nM to 237 nM; 120 minutes at 30° C.; read-out: EC50, stimulating the uptake and incorporation of radioactive glucose into muscle glycogen
Experimental: The soleus muscle was dissected from anaesthetized fasted male Wistar rats (200 g±20 g). Each muscle was then teased longitudinally into 3 equal strips with a final radius of approximately 1.5 mm. An average of six muscle strips were transferred into flasks, containing 10 ml of carbogen-saturated nDMEM and peptide (vesiculin, insulin-II, or commercial human IGF-II (GroPep)) at concentrations ranging from 0.71 nM to 237 nM, before the addition of 10 μl of (0.5 μCi) D-[^14C(U)]-Glucose. Flasks were then incubated in a shaking water bath for 120 minutes at 30° C. under a stream of carbogen.
After incubation, the muscle strips were removed and blotted dry before being frozen instantly in liquid nitrogen and freeze-dried for 24 hours. The dried weight of muscle strip was recorded before the muscle strips were solubilised in 250 μl of 60% KOH (70° C. water bath for 45 minutes). 750 μl of ice-cold ethanol was then added and the tubes were left overnight at −20° C. to facilitate glycogen precipitation. Tubes were then centrifuged at 9000 g for 15 minutes at 0° C., the supernatant aspirated and the glycogen pellet resuspended in 750 μl of ice-cold ethanol. […] The tubes were mixed thoroughly, and then counted using a Beckman LS 3801 β-counter. The amount of D-[^14C(U)]-Glucose incorporation into muscle glycogen was calculated by dividing the cpm values by the dry muscle weight. […]

Row | EC50 | Substance
1 | 48 nM | human IGF-II: commercial human IGF-II (GroPep), used as a further positive control
2 | 27 nM | mouse insulin-II: insulin-II co-purified from βTC6-F7 granules as a preparative control
